Reference: patent publication US20250250265A1, “BENZOTHIAZOLE-PHENYLSULFONYL-PIPERIDINE ANALOGS AS ACTIVATORS OF NACYLPHOSPHATIDYLETHANOLAMINE HYDROLYZING PHOSPHOLIPASE D” (priority 2022, published 2025)
Like-named read-outs stand apart in the source and are kept apart here.

Key:
[1] = molecular target: T1, recombinant mouse NAPE-PLD (Mus musculus, UniProt Q8BH82); test: In vitro fluorescence NAPE-PLD activity assay (HTS/CRC) with recombinant mouse NAPE-PLD and PED-A1; format: biochemical; conditions: for Max % bA (%): maximum induced activity compared to basal (100%) activity; for Emax (95% Cl): Table 4, maximal efficacy as fold increase in NAPE-PLD activity versus vehicle only
T1 construct: hexahistidine (His6) (C); made in house; host or cells: E. coli
T1 sequence (Q8BH82 1-396): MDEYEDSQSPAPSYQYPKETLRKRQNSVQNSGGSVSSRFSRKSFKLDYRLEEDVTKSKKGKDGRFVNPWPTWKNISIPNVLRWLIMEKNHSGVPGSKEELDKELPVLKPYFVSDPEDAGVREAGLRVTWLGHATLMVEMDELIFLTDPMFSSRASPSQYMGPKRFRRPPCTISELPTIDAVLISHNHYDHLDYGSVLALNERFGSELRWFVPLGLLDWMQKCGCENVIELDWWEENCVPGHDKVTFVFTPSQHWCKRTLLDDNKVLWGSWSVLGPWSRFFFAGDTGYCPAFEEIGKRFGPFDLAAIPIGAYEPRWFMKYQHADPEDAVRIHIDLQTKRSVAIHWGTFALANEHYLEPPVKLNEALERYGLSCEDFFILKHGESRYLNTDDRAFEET
Experimental: Using the fluorogenic NAPE substrate, PED-A1, and recombinant mouse NAPE-PLD (rNAPE-PLD), an in vitro high-throughput (HTS) assay was conducted to screen ˜40,000 compounds for their ability to modulate NAPE-PLD activity. The HTS assay enabled the detection of both NAPE-PLD activators and inhibitors. […] Initial structure-activity response studies with the top hits identified benzothiazole phenylsulfonyl-piperidine carboxamide analogs (BT-PSP analogs) as lead compounds for NAPE-PLD activators (Table 1). The lead BT-PSP analog identified, VU534, induces 50% of its activation effect on NAPE-PLD at 270 nM (AC50 270 nM), and induces a maximal effect of 195% of basal NAPE-PLD activity (Table 1).
In vitro fluorescence NAPE-PLD activity assays using recombinant NAPE-PLD and either PED-A1 or flame-NAPE as fluorogenic substrate were performed as previously described except with small modifications as noted below. See Aggarwal et al., J. Biol. Chem. 295(21): 7289-7300 (2020); Zarrow et al., J. Lipid Res. 63(1): 100156 (2022).
For the HTS assays, test compounds were incubated with recombinant enzyme for 1 h prior to adding PED-A1 (final 0.4 μM) mixed with N-palmitoyl-dioleoyl-PE (final 3.6 μM) to adjust for the high sensitivity of the Panoptic instrument (WaveFront Biosciences). Assays used black-wall, clear-bottom, non-sterile, and non-treated 384-well plates (Greiner Bio-One 781906). The assay was read in kinetic fluorescence mode on the Panoptic instrument for 4 min and the slope of the signal from 30-100 s was used for analysis. A total of 39,328 compounds from the Vanderbilt Discovery Collection were tested, each at 10 μM. The tested compounds were chosen to represent a structurally diverse selection from the full library. Each 384-well plate included 320 test compound wells and 64 control wells. Unlike previous pilot screening assays, bithionol (10 μM final) was used in place of lithocholic acid (100 μM final) as the inhibitor control. Before performing high-throughput screening, a checkerboard assay was performed to validate the assay parameters. This yielded a Z′ score of 0.676. Z′ scores were also calculated for each plate during screening, and plates with scores <0.5 were re-run. The average Z′ across all screening plates was 0.52, and the total hit rate was 3.6%. B-scores were calculated from the initial slopes across each plate using WaveGuide software (WaveFront Biosiences). Modulator hits were defined as compounds with absolute B-scores of 3 or higher. The number of compounds in various B-score ranges were as follows: […], 12 compounds; −10 to −5, 221 compounds; −5 to −3, 770 compounds; −3 to 3, 37924 compounds; 3 to 4, 314 compounds; 4 to 6, 70 compounds; 6 to 10, 15 compounds. Activator hits with B-scores of >3 were selected for the replication assay and a selection of analogs of the activators.
Concentration response curve (CRC) experiments used the same assay conditions as the HTS assay, except that graded concentrations of each test compound were used, with total amount of vehicle (DMSO) kept constant. CRC experiments with purified recombinant mouse NAPE-PLD were performed on two separate days, with values from each day normalized to vehicle only controls on same plate, and then all normalized values from both days averaged together. CRC experiments with human NAPE-PLD represent value from only a single day, due to limited amounts of this recombinant enzyme.

[2] = molecular target: T2, Fatty Acid Amide Hydrolase (FAAH) (Homo sapiens, UniProt O00519); test: FAAH activity assay (Cayman Chemicals); format: biochemical; conditions: 33 μM compound, compared to vehicle (0%)
T2 construct: purchased Cayman Chemicals
T2 sequence (O00519 1-579): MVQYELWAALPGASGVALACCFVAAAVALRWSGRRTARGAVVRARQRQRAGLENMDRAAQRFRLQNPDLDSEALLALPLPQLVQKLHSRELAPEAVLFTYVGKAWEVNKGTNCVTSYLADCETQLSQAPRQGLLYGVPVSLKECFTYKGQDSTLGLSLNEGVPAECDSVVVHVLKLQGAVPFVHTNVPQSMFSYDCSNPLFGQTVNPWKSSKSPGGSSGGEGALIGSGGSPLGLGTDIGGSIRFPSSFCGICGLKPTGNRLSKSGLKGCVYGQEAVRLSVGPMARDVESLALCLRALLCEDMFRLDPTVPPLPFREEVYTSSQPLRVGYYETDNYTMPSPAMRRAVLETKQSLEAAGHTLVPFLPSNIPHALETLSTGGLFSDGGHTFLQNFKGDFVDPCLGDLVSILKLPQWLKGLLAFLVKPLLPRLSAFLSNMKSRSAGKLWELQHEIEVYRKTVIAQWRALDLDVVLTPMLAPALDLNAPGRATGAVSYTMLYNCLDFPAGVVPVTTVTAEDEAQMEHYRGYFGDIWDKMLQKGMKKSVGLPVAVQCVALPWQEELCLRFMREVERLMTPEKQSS
Experimental: (§1) Concentration response curves were plotted for VU534 for the enzymes fatty acid amide hydrolase (FAAH) and soluble epoxide hydrolase (sEH).
(§2) The fluorescence interference assay was performed using the same method as the HTS assay, but with BODIPY-FL C5 (Thermo Fisher Scientific) used in place of PED-A1. sEH and FAAH activity assays were performed according to the manufacturer's specifications (Cayman Chemicals).

[3] = molecular target: T3, soluble epoxide hydrolase (sEH) (Homo sapiens, UniProt P34913); test: sEH activity assay (Cayman Chemicals); format: biochemical; conditions: 33 μM compound, compared to vehicle (0%)
T3 construct: purchased Cayman Chemicals
T3 sequence (P34913 1-555): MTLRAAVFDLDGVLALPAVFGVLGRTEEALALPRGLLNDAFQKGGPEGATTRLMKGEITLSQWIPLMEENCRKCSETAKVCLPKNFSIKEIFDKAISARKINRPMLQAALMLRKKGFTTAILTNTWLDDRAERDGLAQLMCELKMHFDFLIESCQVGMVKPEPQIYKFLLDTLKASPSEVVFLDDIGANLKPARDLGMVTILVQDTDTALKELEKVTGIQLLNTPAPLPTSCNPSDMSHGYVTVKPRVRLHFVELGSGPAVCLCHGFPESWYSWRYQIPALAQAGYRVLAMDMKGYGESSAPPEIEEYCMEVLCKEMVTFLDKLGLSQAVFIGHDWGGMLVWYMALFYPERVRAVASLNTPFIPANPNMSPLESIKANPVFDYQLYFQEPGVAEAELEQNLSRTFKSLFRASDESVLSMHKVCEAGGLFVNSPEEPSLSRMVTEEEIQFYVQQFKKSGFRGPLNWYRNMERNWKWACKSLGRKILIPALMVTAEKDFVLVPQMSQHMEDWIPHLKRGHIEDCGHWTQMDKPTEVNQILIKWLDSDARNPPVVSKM
Experimental: as §1, §2

[4] = test system: RAW264.7 mouse macrophages; test: Cytotoxicity (MTT) in RAW264.7 macrophages; format: cell-based; conditions: Table 2; Mϕ, 33 μM compound
Experimental: Cytotoxicity was measured using MTT as previously described except that the studies used 96-well plates with 100 μL of 0.3 mg/mL MTT solution was added after 24 h of treatment and then replaced after 3 h with 0.1 M HCl in isopropanol. See Aggarwal et al., J. Biol. Chem. 295(21): 7289-7300 (2020). Viability was expressed as percent absorbance at 560 nm relative to vehicle controls.

[5] = Table 1, concentration for 50% maximum activation from basal activity (no activator)
[6] = Table 2, maximal induced activity for recombinant NAPE-PLD compared to basal (100%), read-out: Emax (%)
[7] = Table 2, rNAPE-PLD activity assay, read-out: EC50
[8] = Table 3, read-out: In vitro EC50
[9] = Table 3, read-out: In vitro Emax (100% activity is baseline activity of vehicle only)
[10] = Table 2, rNAPE-PLD activity assay

SMILES | AC50 [1, 5] | Max % bA (%) ([1]; Table 1) | Emax [1, 6] | EC50 [1, 7] | EC50 [1, 8] | Emax [1, 9] | Emax (95% Cl) [1] | AC50 (nM) [1, 5] | EC50 (μM) [1, 10] | inhibition at 33 µM [2] | inhibition at 33 µM [3] | 33 μM Mϕ % Viability [4]
Cc1ccc2nc(NC(=O)C3CCN(S(=O)(=O)c4ccc(Cl)cc4)CC3)sc2c1 [VU539] | 2380 nM | 170% | 170% | 2380 nM | 2400 nM | 167% | 1.7 (1.6-1.8) fold |  |  |  |  | 
Cc1cccc2sc(NC(=O)C3CCN(S(=O)(=O)c4ccc(Cl)cc4)CC3)nc12 [VU542] |  | <120% | < 120% |  | 1100 nM | 183% | 1.9 (1.9-2.0) fold | Not active | Inactive |  |  | 
Cc1ccc(S(=O)(=O)N2CCC(C(=O)Nc3nc4ccc(Cl)cc4s3)CC2)cc1 [VU572] |  |  |  |  |  | ~349% |  |  |  |  |  | 
COc1ccc(S(=O)(=O)N2CCC(C(=O)Nc3nc4c(C)cccc4s3)CC2)cc1 [VU605] | 1040 nM | 170% | < 120% |  | ~200 nM | ~119% | 2.1 (2.0-2.2) fold |  | Inactive |  |  | 
O=C(Nc1nc2ccccc2s1)C1CCN(S(=O)(=O)c2ccc(Cl)cc2)CC1 [VU541] |  |  |  |  | 3300 nM | 153% |  |  |  |  |  | 
Cc1cc(F)ccc1S(=O)(=O)N1CCC(C(=O)Nc2nc3c(C)cccc3s2)CC1 [MRJ-058A] |  |  | 150% | 2900 nM |  |  |  |  |  | 20% | 85% | 55%
